Molecules are shown by their SMILES. pIC50: −log10 of the molar value. Where a name gives a salt, the structure may show the parent alone. Read-outs that look alike come from different tables or passages of the source.

For data set [1], the target named is BCL-XL (Homo sapiens, UniProt Q07817). Briefly: Protein-protein interaction assay BCL-XL/Bad BH3 peptide, TR-FRET (BCL-XL assay, Assay 2). The following applies: His-BCL-XL / Bad BH3 peptide, median. The format is binding. On the technique in general: In TR-FRET formats the signal depends on donor and acceptor labels being close together.
Description: Protein-Protein Interaction Assay: BCL-XL/Bad BH3 Peptide (BCL-XL Assay)
The dose-dependent inhibition by the compounds described in this invention of the interaction between BCL-XL and the BH3 domain of Bad (both human) was determined using a steady state binding competition assay with time-resolved fluorescence energy transfer (TR-FRET) readout. For that purpose BCL-XL (amino acids 1-212, C-terminal fused to a hexahistidine (6×His) tag (SEQ ID 3) and a synthetic Bad BH3-derived peptide of sequence Biotin-PEG2-PEG2-[sequence]-Nle-[sequence]-amide (SEQ ID 4) served as protein receptor and tracer ligand respectively. The recombinant BCL-XL protein (expressed in E. coli) was purchased from BPS Bioscience (San Diego, Calif., USA). The Bad BH3-derived peptide can be obtained from e.g. Biosyntan (Berlin, Germany).
For that, 100-fold concentrated DMSO solutions were prepared by serial dilutions (1:3.4) of a 2 mM stock solution in a clear, 384-well microtiter plate (Greiner Bio-One, Frickenhausen, Germany). From there, 50 nl were transferred in a dark test plate (Greiner Bio-One, Frickenhausen, Germany). The assay was initiated by addition of 2 μl of a 2,5-fold concentrated His-BCL-XL solution (usually for a 1 nM end concentration in 5 μl reaction volume) in aqueous assay buffer [50 mM Tris/HCl pH 7, 100 mM sodium chloride (NaCl), 50 mM potassium fluoride (KF), 0.005% Tween-20, 2 mM DTT, 0.1% bovine gamma globulin (BGG)] to the compounds in the assay plate. This was followed by a 10-minute incubation step at 22° C. for pre-equilibration of the putative complex between His-BCL-XL and the compounds.
The mixture was incubated in the dark for one hour at 22° C. and then overnight at 4° C. The formation of BCL-XL/Bad complexes was determined by measuring the resonance energy transfer of the anti-His- Eu-cryptate antibody to the streptavidin-XL665 present in the reaction. For that purpose, the fluorescence emission at 620 nm and 665 nm after excitation at 330-350 nm was measured in a TR-FRET measuring instrument, for instance a Rubystar or a Pherastar (both from BMG Lab Technologies, Offenburg, Germany) or a Viewlux (Perkin-Elmer). The ratio of the emission at 665 nm and at 622 nm was used as indicator of the amount of BCL-XL/Bad complexes present.
(§4) The resulting data (ratio) were normalized, taking 0% inhibition as the mean value of control measurements (usually 32 data points) where all reagents were included. In this case 50 nl DMSO were used instead of compounds. […] IC50 values were determined by regression analysis based on a 4 parameter equation (minimum, maximum, IC50, Hill; Y=Max+(Min−Max)/(1+(X/IC50)^Hill) using the Screener Software (Genedata).
The subject of data set [2] is SUDHL10. Briefly: Induction of cytotoxicity in SUDHL10 cells, CellTiter-Glo (Assay 6). The format is cell-based. The following applies: SUDHL10, 5 hours incubation, median, read-out: Cytotox SUDHL10 [M] (median). In a few lines:
(§1)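 Luminescent ATP readout (CellTiter-Glo, 15 min at room temperature) quantifies cytotoxicity after a 5 h compound exposure at 37 °C.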

The subject of data set [3] is AMO-1. Briefly: Anti-proliferative effect in AMO-1 cells, CellTiter-Glo (Assay 7). It is filed as cell-based. To be noted: several values per example; for pIC50: AMO-1, 72 hours incubation, CellTiter-Glo, read-out: Antiproli AMO-1. A digest of the protocol: (§2)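 Overnight seeding at 37 °C, then 72 h treatment with compound; day 0 plate read at start. Luminescent ATP-based viability readout (CellTiter-Glo). IC50 normalised between day 0 and DMSO values.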
On the technique in general: Cellular ATP, detected with luciferase, serves as a proxy for viable cell number.

Data set [4] concerns the target BCL-2 (Homo sapiens, UniProt P10415). As to the kind of experiment: Protein-protein interaction assay BCL-2/Bad BH3 peptide, TR-FRET (BCL-2 assay, Assay 3). The format is binding. The following applies: His-BCL-2 / Bad BH3 peptide, median.
Description: The dose-dependent inhibition by the compounds described in this invention of the interaction between BCL-2 and the BH3 domain of Bad (both human) was determined using a steady state binding competition assay with time-resolved fluorescence energy transfer (TR-FRET) readout. For that purpose BCL-2 (amino acids 1-211, C-terminal fused to a hexahistidine (6×His) tag (SEQ ID 5) and a synthetic Bad BH3-derived peptide of sequence Biotin-PEG2-PEG2-[sequence]-Nle-[sequence]-amide (SEQ ID 4) served as protein receptor and tracer ligand respectively. The recombinant BCL-2 protein (expressed in E. coli) was purchased from BPS Bioscience (San Diego, Calif., USA). The Bad BH3-derived peptide can be obtained from e.g. Biosyntan (Berlin, Germany).
For that, 100-fold concentrated DMSO solutions were prepared by serial dilutions (1:3.4) of a 2 mM stock solution in a clear, 384-well microtiter plate (Greiner Bio-One, Frickenhausen, Germany). From there, 50 nl were transferred in a dark test plate (Greiner Bio-One, Frickenhausen, Germany). The assay was initiated by addition of 2 μl of a 2,5-fold concentrated His-BCL-2 solution (usually for a 1 nM end concentration in 5 μl reaction volume) in aqueous assay buffer [50 mM Tris/HCl pH 7, 100 mM sodium chloride (NaCl), 50 mM potassium fluoride (KF), 0.005% Tween-20, 2 mM DTT, 0.1% bovine gamma globulin (BGG)] to the compounds in the assay plate. This was followed by a 10-minute incubation step at 22° C. for pre-equilibration of the putative complex between His-BCL-2 and the compounds.
The mixture was incubated in the dark for one hour at 22° C. and then overnight at 4° C. The formation of BCL-2/Bad complexes was determined by measuring the resonance energy transfer of the anti-His-Eu-cryptate antibody to the streptavidin-XL665 present in the reaction. For that purpose, the fluorescence emission at 620 nm and 665 nm after excitation at 330-350 nm was measured in a TR-FRET measuring instrument, for instance a Rubystar or a Pherastar (both from BMG Lab Technologies, Offenburg, Germany) or a Viewlux (Perkin-Elmer). The ratio of the emission at 665 nm and at 622 nm was used as indicator of the amount of BCL-2/Bad complexes present.
as §4
Data set [5] has as its system SUDHL5. Briefly: Induction of caspase-3/7 activity in SUDHL5 cells (Assay 4). The format is cell-based. In a few lines:
(§3)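 Luminescent Caspase-Glo 3/7 read-out in SUDHL5 and SUDHL10 cells after 3 h compound exposure at 37 °C, followed by 1 h reagent incubation.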

Data set [6] relates to A2780. Briefly: Anti-proliferative effect in A2780 cells, CellTiter-Glo (Assay 7). The format is cell-based. The following applies: Homo sapiens, A2780, 72 h, several values per example; for pIC50: A2780, 72 hours incubation, CellTiter-Glo, read-out: Antiproli A2780. A digest of the protocol:
as §2

For data set [7], the system named is SUDHL5. Briefly: Induction of cytotoxicity in SUDHL5 cells, CellTiter-Glo (Assay 6). The format is cell-based. The following applies: SUDHL5, 5 hours incubation, median, read-out: Cytotox SUDHL5 [M] (median). A digest of the protocol:
as §1

In data set [8] the test system is SUDHL5. As to the kind of experiment: Anti-proliferative effect in SUDHL5 cells, CellTiter-Glo (Assay 7). The format is cell-based. In a few lines: as §2
The test system of data set [9] is SUDHL10. Briefly: Induction of caspase-3/7 activity in SUDHL10 cells (Assay 4). The format is cell-based. A digest of the protocol:
as §3

For data set [10], the target named is MCL-1 (Homo sapiens, UniProt Q07820, K194A/K197A/R201A). Briefly: Protein-protein interaction assay MCL-1/Noxa BH3 peptide, TR-FRET (MCL-1 assay, Assay 1). It is filed as binding. To be noted: MCL-1 Assay [M] (median), MBP-MCL-1 / Noxa BH3 peptide. A digest of the protocol:
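TR-FRET competition between compounds and a biotin-PEG Noxa BH3 tracer for 1 nM MBP-MCL-1 (residues 173-321). Incubation was 1 h at 22 °C in the dark, then overnight at 4 °C, in 50 mM Tris pH 7 buffer with KF and DTT, after a 10-min compound pre-equilibration. Normalized ratios were fitted with a 4-parameter Hill equation to give IC50.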

In data set [11] the test system is MV-4-11. Briefly: Anti-proliferative effect in MV-4-11 cells, CellTiter-Glo (Assay 7). The format is cell-based. To be noted: read-out: Antiproli MV-4-11; MV-4-11, 72 hours incubation, CellTiter-Glo; several values per example. A digest of the protocol:
as §2

Setting [12] is: Homo sapiens, SU-DHL-5, 3 h, SUDHL5, 3 hours treatment, Caspase-Glo 3/7, median, read-out: Caspase SUDHL5 [M] (median).
[13] abbreviates: Homo sapiens, SU-DHL-5, 72 h, SUDHL5, 72 hours incubation, CellTiter-Glo, median, read-out: Antiproli SUDHL5 [M] (median).
[14] abbreviates: Homo sapiens, SU-DHL10, 3 h, SUDHL10, 3 hours treatment, Caspase-Glo 3/7, median, read-out: Caspase SUDHL10 [M] (median).
Where [15] appears, read: read-out: Caspase SUDHL5 [M] (median), SUDHL5, 3 hours treatment, Caspase-Glo 3/7.
[16] abbreviates: read-out: Antiproli SUDHL5 [M] (median), SUDHL5, 72 hours incubation, CellTiter-Glo.

Chain of BCL-2 (P10415 1-211): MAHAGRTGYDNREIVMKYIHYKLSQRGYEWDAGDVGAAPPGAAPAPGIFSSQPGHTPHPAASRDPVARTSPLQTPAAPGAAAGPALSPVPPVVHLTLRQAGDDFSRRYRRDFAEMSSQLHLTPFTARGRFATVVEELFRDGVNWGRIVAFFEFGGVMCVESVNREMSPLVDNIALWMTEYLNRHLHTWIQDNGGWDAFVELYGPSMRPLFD
Chain of BCL-XL (Q07817 1-212): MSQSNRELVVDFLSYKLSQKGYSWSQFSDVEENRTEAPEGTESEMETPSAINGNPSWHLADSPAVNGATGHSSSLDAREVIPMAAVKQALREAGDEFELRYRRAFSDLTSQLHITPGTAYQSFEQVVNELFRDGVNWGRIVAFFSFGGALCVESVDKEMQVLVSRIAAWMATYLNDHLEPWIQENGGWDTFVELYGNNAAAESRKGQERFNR
Chain of MCL-1 (Q07820 173-321 K194A/K197A/R201A, looked up): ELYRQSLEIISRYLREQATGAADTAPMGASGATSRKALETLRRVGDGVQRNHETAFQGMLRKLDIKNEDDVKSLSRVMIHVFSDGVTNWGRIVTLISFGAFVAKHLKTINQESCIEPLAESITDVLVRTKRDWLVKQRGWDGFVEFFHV

As for `CCc1c2c(nn1C)COCc1ccccc1Cn1c(C(=O)O)c(CCCOc3cccc4c3CCCC4)c3ccc(F)c-2c31` (racemic) [Example 77, (rac)-14-Ethyl-15-fluoro-13-methyl-1-(3-((5,6,7,8-tetrahydronaphthalen-1-yl)oxy)propyl)-4,9,11,13-tetrahydrobenzo[3,4]pyrazolo[4′,3′:9,10][1]oxa[6]azacycloundecino[8,7,6-hi]indole-2-carboxylic Acid], the IC50 in [1] is greater than 20 µM; in data set [2] (Homo sapiens, SU-DHL10, 5 h) it was 6.2e-06 M; in [4], 12.6 µM; in data set [7] (Homo sapiens, SU-DHL-5, 5 h), 3e-06 M; in [8] (setting [13]) it was 5.8e-06 M. The pIC50 in data set [3] (Homo sapiens, AMO1, 72 h) is 5.14; in [6], 4.99. For the same compound, the results for the EC50 in data set [5] (setting [12]) and in [9] (setting [14]) were 2.4e-06 M and 8.4e-06 M, respectively.

As for `Cc1nn(C)c2c1-c1c(F)ccc3c(CCCOc4cccc5ccccc45)c(C(=O)O)n(c13)Cc1ccccc1COC2` (racemic) [Example 80, (rac)-15-Fluoro-12,14-dimethyl-1-(3-(naphthalen-1-yloxy)propyl)-4,9,11,12-tetrahydrobenzo-[3,4]pyrazolo[4′,3′:9,10][1]oxa[6]azacycloundecino[8,7,6-hi]indole-2-carboxylic Acid], the IC50 in [1] is greater than 20 µM; in [2] (Homo sapiens, SU-DHL10, 5 h), greater than 1.1e-05 M; in [4], greater than 20 µM; in data set [7] (Homo sapiens, SU-DHL-5, 5 h), 4.3e-06 M; in data set [10], 7.6e-09 M; in data set [8] (setting [13]), 7.7e-06 M. For the same compound, the pIC50 in [3] (Homo sapiens, AMO1, 72 h) was 4.59; in data set [6] it was 4.75. The figures for the EC50 in [5] (setting [12]) and in data set [9] (setting [14]) were 5.2e-06 M and greater than 2.5e-05 M, respectively.

In the case of `Cc1c2c(nn1C)COCc1cccnc1Cn1c(C(=O)O)c(CCCOc3cccc4ccccc34)c3ccc(Cl)c-2c31` (single isomer, unassigned; enantiomer 1) [Example 40, 3-Chloro-4,5-dimethyl-17-[3-(naphthalen-1-yloxy)propyl]-5,7,9,14-tetrahydropyrazolo-[4′,3′:9,10]pyrido[3′,2′:3,4][1,6]oxazacycloundecino[8,7,6-hi]indole-16-carboxylic acid-N-ethylethanamine Salt (Enantiomer 1)], the IC50 in data set [1] was 19.4 µM; in data set [2] (Homo sapiens, SU-DHL10, 5 h) it was 8.3e-06 M; in data set [3] (Homo sapiens, AMO1, 72 h, read-out: Antiproli AMO-1 [M], AMO-1, 72 hours incubation, CellTiter-Glo) it was 7.53e-06 M; in [4], greater than 20 µM; in [6] (read-out: Antiproli A2780 [M], A2780, 72 hours incubation, CellTiter-Glo), 2.19e-05 M; in [7] (Homo sapiens, SU-DHL-5, 5 h) it was 3.3e-06 M. Besides, in data set [8] (setting [16]), the IC50 worked out at 2.2e-06 M. In data set [3], the pIC50 was 5.04. The EC50 in [5] (setting [15]) worked out at 2.5e-06 M; in data set [9] (Homo sapiens, SU-DHL10, 3 h, read-out: Caspase SUDHL10 [M] (median), SUDHL10, 3 hours treatment, Caspase-Glo 3/7) it was 1.4e-05 M.

For the compound `CCc1c2c(nn1C)COCc1ccccc1Cn1c(C(=O)O)c(CCCOc3cccc4cc(F)ccc34)c3ccc(F)c-2c31` (single isomer, unassigned; enantiomer 1) [Example 74, (−)-4-Ethyl-3-fluoro-17-{3-[(6-fluoronaphthalen-1-yl)oxy]propyl}-5-methyl-5,7,9,14-tetrahydroindolo[7,1-fg]pyrazolo[3,4-d][2,8]benzoxazacycloundecine-16-carboxylic acid-N-ethylethanamine Salt (Enantiomer 1)], the IC50 in [1] was greater than 20 µM; in data set [2], 1.4e-06 M; in [4], 19.8 µM; in data set [7] it was 1.1e-06 M; in data set [10], 9.2e-10 M; in data set [8] (setting [16]), 1.3e-06 M. Besides, the figures for the pIC50 in data set [3] and in data set [11] were 5.75 and 5.44, respectively. Further, the EC50 amounted to 8.2e-07 M in [5] (setting [15]) and 1.2e-06 M in [9] (read-out: Caspase SUDHL10 [M] (median), SUDHL10, 3 hours treatment, Caspase-Glo 3/7).

These data come from US20210253598A1, “ARYL ANNULATED MACROCYCLIC INDOLE DERIVATIVES” (priority 2017, published 2021).
